Experimental data: patent US9938261B2, “Heterocyclic compounds and methods of use thereof” (AMBIT BIOSCIENCES CORPORATION, priority 2011, dated 2018)
Read-outs that look alike come from different tables or passages of the source.

Legend:
[1] = target: T1, CSF1R (Homo sapiens, UniProt P07333); assay: HEK293 CSF1R phosphorylation MSD assay; type: cell-based; design: expressed in transfected cells; host or cells: HEK293; details: read-out: HEK293 pCSF1R M-CSF MSD:IC50
Method: The compounds disclosed herein were tested in a CSF1R phosphorylation assay to determine their cellular potency against CSF1R. A HEK293 cell line expressing CSF1R fused to FK506 binding protein (FKBP) as a molecular tag was generated. Inhibition of CSF1R kinase activity will prevent ligand-stimulated autophosphorylation of the CSF1R-FKBP in intact cells. Subsequent cell lysates are assayed in a sandwich ELISA employing the electrochemiluminescent Meso Scale Discovery (MSD) technology for the presence of the phosphorylated (p)CSF1R-FKBP. This assay determines the potency of compounds as CSF1R inhibitors by measuring the reduction in the amount of pCSF1R with increasing doses of compounds added to the cells prior to M-CSF stimulation.
On day one of the experiment, HEK293-CSF1R-FKPB cells, maintained in DMEM, with L-glutamine (Mediatech), 10% FBS, and 100 units/mL Penicillin/Streptomycin, were seeded at 50,000 cell/well in a volume of 100 μL per well in 96-well Cell Bind plates (Costar). The cells were cultured overnight at 37° C. under 5% CO2. To prepare the plates used in the MSD assay, a 330 nM biotin-FK506 (in TBS pH 7.2) solution was added at 30 μL per well to streptavidin-coated 96-well plates (MSD), and incubated overnight at room temperature, shaking at 500 rpm on an orbital shaker.
On day two, compounds diluted in DMSO were added to the cells in duplicate plates at 9 different concentrations with half-log intervals, plus DMSO only control, alongside a reference compound serving as a positive control. Final DMSO concentration was 0.5% in a volume of 200 μL per well. The compounds were allowed to incubate with the cells for 2 h at 37° C. under 5% CO2. At the end of the incubation, human M-CSF (R&D Systems) was added for 5 min to a final concentration of 50 ng/mL to stimulate CSF1R phosphorylation. Cells were lysed for 20 min, and the lysates were applied to the washed, FK506-coated MSD plates, and incubated overnight at 4° C. shaking at 500 rpm.
On day three, the MSD plates were washed, and the captured CSF1R-FKBP was assayed sequentially for phosphorylation using mouse anti-phosphotyrosine antibody (Millipore) and Sulfo-TAG goat anti-mouse IgG antibody (MSD), and detected on a Sector Imager 6000 instrument (MSD).
A single IC50 value for each compound was determined by averaging the IC50s of the duplicates calculated using Igor Pro 6 software, and represents the compound concentration that achieves a 50% inhibition of ligand-induced CSF1R phosphorylation compared to DMSO control.

[2] = target: T2, PDGFRβ (Homo sapiens, UniProt P09619); assay: Competition binding assay, PDGFRβ Kd
T2 construct: made in house
T2 sequence (P09619 33-1106): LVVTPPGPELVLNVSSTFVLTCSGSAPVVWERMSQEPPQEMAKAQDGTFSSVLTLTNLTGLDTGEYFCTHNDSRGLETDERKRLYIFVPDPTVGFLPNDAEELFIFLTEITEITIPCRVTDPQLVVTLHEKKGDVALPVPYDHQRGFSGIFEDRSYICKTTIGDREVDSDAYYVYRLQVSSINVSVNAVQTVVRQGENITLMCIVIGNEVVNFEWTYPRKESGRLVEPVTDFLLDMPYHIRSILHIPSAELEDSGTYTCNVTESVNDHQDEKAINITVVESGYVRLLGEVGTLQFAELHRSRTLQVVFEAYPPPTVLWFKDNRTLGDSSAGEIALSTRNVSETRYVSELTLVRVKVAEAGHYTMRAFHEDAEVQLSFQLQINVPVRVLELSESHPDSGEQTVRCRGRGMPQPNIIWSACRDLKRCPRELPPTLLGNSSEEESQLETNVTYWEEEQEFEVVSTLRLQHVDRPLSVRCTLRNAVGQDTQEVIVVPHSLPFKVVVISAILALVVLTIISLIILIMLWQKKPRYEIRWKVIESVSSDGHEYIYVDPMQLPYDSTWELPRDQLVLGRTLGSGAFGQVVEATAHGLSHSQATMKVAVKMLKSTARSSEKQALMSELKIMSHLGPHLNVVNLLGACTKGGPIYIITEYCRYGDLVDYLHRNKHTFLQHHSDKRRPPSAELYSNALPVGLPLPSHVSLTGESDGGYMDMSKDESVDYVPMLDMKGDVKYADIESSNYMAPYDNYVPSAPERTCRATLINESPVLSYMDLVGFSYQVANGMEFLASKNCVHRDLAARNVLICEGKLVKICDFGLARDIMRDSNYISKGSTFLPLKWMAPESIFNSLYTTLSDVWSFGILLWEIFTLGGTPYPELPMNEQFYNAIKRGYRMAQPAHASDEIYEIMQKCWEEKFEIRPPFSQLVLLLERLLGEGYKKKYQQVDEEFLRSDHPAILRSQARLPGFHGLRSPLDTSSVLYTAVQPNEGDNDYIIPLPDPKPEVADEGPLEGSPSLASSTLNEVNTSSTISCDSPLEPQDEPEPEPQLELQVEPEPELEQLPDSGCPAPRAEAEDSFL
Method: (§1) Competition binding assays used herein were developed, validated and performed as described in Fabian et al., Nature Biotechnology 2005, 23, 329-336. Kinases were produced as fusions to T7 phage (See, Fabian et al. or WO04/015142) or alternatively, the kinases were expressed in HEK-293 cells and subsequently tagged with DNA for PCR detection (See, WO08/005310). For the binding assays, streptavidin-coated magnetic beads were treated with biotinylated affinity ligands for 30 min at room temperature to generate affinity resins. The liganded beads were blocked with excess biotin and washed with blocking buffer (SeaBlock (Pierce), 1% BSA, 0.05% Tween 20, 1 mM DTT) to remove unbound ligand and to reduce non-specific binding. Binding reactions were assembled by combining kinase, liganded affinity beads, and test compounds in 1× binding buffer (20% SeaBlock, 0.17×PBS, 0.05% Tween 20, 6 mM DTT). Test compounds were prepared as 100× stocks in DMSO and diluted into the aqueous environment. Kds were determined using an eleven point threefold serial dilutions. DMSO or control compounds were was added to control assays lacking a test compound. Primary screen assays were performed in polypropylene 384-well plates in a final volume of 20-40 μL, while Kd determinations were performed in polystyrene 96-well plates in a final volume of 135 μL. The assay plates were incubated at room temperature with shaking for 1 hour to allow the binding reactions to reach equilibrium, and the affinity beads were washed extensively with wash buffer (1×PBS, 0.05% Tween 20) to remove unbound protein. The beads were then resuspended in elution buffer (1×PBS, 0.05% Tween […] non-biotinylated affinity ligand) and incubated at room temperature with shaking for 30 min. The kinase concentration in the eluates was measured by quantitative PCR.

[3] = tested on: M-NFS-60 cells; assay: M-NFS-60 cell proliferation assay (Alamar Blue); type: cell-based, mouse; details: read-out: CSF1R M-NFS-60 CTB:IC50
Method: The compounds disclosed herein were tested in an M-NFS-60 cell proliferation assay to determine their cellular potency against CSF1R. M-NFS-60s are mouse monocytic cells that depend on the binding of the ligand M-CSF to its receptor, CSF1R, to proliferate. Inhibition of CSF1R kinase activity will cause reduced growth and/or cell death. This assay assesses the potency of compounds as CSF1R inhibitors by measuring the reduction of Alamar Blue reagent by viable cells.
On day one of the experiment, M-NFS-60 cells were maintained in RPMI complete medium (Omega Scientific) plus 10% FBS supplemented with 20 ng/mL of M-CSF (R&D Systems). 96-well TC-treated, flat bottom plates were seeded at 10,000 cell/well at a volume of 100 μL per well. The cells were cultured overnight at 37° C. under 5% CO2.
On day two, compounds were added to the cells at 9 different concentrations, with half-log intervals alongside a control reference compound serving as a positive control. Final DMSO concentration was kept at 0.5% for a final volume of 200 μL. The compounds were allowed to incubate with the cells for 72 hours at 37° C. under 5% CO2.
On day five of the experiment, 40 μl of Alamar Blue reagent was added to each well and allowed to incubate for 3 hours. Alamar Blue fluorescence was read using SoftMax Pro software at 560 nm (excitation) and 590 nm (emission). IC50s were generated as an average of duplicates and represents the concentration of test compound that achieves 50% inhibition of cellular proliferation compared to control.

[4] = target: T3, FLT3 (Homo sapiens, UniProt P36888); assay: Competition binding assay, FLT3 Kd
T3 construct: made in house
T3 sequence (P36888 27-993): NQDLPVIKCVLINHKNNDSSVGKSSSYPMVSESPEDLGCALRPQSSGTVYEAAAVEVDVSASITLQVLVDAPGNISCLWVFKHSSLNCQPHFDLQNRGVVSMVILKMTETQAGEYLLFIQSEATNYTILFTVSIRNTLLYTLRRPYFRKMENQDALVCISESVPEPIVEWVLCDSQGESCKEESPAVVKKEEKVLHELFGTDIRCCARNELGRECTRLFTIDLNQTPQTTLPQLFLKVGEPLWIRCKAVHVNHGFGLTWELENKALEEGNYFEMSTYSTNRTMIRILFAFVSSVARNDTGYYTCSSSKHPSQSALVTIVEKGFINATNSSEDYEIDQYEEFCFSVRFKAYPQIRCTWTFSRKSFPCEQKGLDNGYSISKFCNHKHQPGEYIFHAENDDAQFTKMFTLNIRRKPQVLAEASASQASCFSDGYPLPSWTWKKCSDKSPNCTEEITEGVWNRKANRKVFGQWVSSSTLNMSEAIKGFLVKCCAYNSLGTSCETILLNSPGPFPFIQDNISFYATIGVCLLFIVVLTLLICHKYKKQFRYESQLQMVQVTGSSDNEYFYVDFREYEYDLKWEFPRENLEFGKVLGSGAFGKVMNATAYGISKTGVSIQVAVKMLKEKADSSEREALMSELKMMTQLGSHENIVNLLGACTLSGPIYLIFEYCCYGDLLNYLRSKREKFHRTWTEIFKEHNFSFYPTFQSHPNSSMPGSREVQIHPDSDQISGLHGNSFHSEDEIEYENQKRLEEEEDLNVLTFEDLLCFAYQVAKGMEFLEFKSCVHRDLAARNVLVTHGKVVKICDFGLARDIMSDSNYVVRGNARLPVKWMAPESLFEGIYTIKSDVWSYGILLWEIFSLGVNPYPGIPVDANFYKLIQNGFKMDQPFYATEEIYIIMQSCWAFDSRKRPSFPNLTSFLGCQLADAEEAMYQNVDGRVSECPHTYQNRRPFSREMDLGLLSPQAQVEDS
Method: as §1

[5] = target: T1, CSF1R; assay: Competition binding assay, CSF1R Kd; design: made in house
Method: as §1

[6] = target: T4, KIT (Homo sapiens, UniProt P10721); assay: Competition binding assay, KIT Kd
T4 construct: made in house
T4 sequence (P10721 26-976): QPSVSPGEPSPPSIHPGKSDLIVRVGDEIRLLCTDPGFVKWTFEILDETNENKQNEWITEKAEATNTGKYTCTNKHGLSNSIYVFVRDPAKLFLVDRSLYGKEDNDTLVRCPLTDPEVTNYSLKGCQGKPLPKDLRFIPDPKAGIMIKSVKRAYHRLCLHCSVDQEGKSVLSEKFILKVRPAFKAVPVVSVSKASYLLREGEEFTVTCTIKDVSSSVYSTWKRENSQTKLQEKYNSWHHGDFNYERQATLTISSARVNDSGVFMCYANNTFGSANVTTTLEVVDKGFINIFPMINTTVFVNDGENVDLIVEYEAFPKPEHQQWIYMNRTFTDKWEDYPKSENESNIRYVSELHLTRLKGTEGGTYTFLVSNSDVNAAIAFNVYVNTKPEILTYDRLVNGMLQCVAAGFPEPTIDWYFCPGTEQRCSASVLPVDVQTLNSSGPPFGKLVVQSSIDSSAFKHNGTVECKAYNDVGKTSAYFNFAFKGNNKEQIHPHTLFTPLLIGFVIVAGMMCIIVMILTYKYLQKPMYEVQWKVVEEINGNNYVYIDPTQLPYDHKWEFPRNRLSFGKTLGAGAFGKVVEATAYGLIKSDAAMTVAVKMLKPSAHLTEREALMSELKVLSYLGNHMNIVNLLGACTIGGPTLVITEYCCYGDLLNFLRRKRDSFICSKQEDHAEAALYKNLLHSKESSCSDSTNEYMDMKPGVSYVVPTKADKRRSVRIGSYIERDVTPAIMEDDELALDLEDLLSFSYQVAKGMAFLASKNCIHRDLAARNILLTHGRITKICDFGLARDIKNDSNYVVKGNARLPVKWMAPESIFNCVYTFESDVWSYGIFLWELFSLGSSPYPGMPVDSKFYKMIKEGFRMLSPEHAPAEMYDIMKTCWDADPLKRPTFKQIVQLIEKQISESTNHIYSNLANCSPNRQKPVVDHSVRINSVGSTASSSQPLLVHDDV
Method: as §1

[7] = 2 h compound, human M-CSF 50 ng/mL for 5 min
[8] = Mus musculus, 72 hours incubation, M-CSF 20 ng/mL

T1 sequence (P07333 20-972): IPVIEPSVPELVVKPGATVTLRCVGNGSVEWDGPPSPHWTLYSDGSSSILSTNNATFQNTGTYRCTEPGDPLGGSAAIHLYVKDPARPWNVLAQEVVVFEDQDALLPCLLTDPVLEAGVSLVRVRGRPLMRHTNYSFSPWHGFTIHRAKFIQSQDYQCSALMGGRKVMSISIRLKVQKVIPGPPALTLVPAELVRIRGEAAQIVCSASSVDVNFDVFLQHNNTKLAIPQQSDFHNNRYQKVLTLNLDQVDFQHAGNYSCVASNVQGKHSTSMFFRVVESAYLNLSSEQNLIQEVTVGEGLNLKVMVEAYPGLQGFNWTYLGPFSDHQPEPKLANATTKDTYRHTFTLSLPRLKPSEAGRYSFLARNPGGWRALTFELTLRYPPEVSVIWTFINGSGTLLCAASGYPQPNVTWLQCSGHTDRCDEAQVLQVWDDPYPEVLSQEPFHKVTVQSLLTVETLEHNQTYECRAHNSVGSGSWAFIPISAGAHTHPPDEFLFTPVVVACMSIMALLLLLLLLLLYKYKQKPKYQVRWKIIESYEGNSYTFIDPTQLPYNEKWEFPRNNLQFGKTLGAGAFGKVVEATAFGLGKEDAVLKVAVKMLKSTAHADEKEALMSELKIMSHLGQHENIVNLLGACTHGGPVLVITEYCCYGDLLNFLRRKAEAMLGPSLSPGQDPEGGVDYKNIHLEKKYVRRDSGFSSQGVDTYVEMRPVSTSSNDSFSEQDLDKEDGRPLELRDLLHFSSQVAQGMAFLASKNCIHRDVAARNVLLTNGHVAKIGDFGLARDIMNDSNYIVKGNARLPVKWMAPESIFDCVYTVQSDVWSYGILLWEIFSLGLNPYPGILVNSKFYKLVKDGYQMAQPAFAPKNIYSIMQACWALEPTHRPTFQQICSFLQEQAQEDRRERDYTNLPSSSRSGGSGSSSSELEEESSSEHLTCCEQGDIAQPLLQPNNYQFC

Molecule | IC50 [1, 7] [nM] | Kd [2] [nM] | Kd [4] [nM] | Kd [5] [nM] | Kd [6] [nM] | IC50 ([1]; HEK293 cells, M-CSF stimulated CSF1R phosphorylation, MSD) [nM] | Kd ([2]; competition binding) [nM] | Kd ([4]; competition binding) [nM] | Kd ([5]; competition binding) [nM] | Kd ([6]; competition binding) [nM] | IC50 [3, 8] [nM] | IC50 ([3]; Mus musculus, M-NFS-60 cell proliferation) [nM] | IC50 ([3]; 72 hours incubation, M-CSF 20 ng/mL) [nM]
COc1ccccc1Nc1nc2ccc(Cn3cnc4cc(F)cnc43)cc2s1 [Example 197, 6-((6-fluoro-3H-imidazo[4,5-b]pyridin-3-yl)methyl)-N-(2-methoxyphenyl)benzo[d]thiazol-2-amine] | – | – | – | – | – | > 500 | 50 to 500 | > 5000 | 5 to 20 | 100 to 500 | – | 400 to 1500 | –
O[C@@H]1CCCC[C@H]1Nc1nc2ccc(Cn3cnc4cc(-c5nn[nH]n5)cnc43)cc2s1 [Example 93, (1R,2R)-2-((6-((6-(2H-tetrazol-5-yl)-3H-imidazo[4,5-b]pyridin-3-yl)methyl)benzo[d]thiazol-2-yl)amino)cyclohexanol] | > 500 | ≤ 50 | 200 to 1000 | 5 to 20 | ≤ 100 | – | – | – | – | – | > 1500 | – | –
(1R,2R)-1-((6-((4-(1-methyl-1H-pyrazol-4-yl)-1H-imidazol-1-yl)methyl)benzo[d]thiazol-2-yl)amino)-2,3-dihydro-1H-inden-2-ol or (1R,2R)-1-((6-((5-(1-methyl-1H-pyrazol-4-yl)-1H-imidazol-1-yl)methyl)benzo[d]thiazol-2-yl)amino)-2,3-dihydro-1H-inden-2-ol [Example 32] | > 500 | > 2000 | 200 to 1000 | > 50 | > 2000 | – | – | – | – | – | – | – | > 1500
COc1cc2ncn(Cc3ccc4nc(NCCN5CCOCC5)sc4c3)c2cc1OC [Example 14, 6-((5,6-dimethoxy-1H-benzo[d]imidazol-1-yl)methyl)-N-(2-morpholinoethyl)benzo[d]thiazol-2-amine] | > 500 | 500 to 2000 | 1000 to 5000 | > 50 | > 2000 | – | – | – | – | – | > 1500 | – | –
COc1cc2ncn(Cc3ccc4nc(NC5CCOC5)sc4c3)c2cc1OC (racemic) [Example 25, (R,S)-6-((5,6-dimethoxy-1H-benzo[d]imidazol-1-yl)methyl)-N-(tetrahydrofuran-3-yl)benzo[d]thiazol-2-amine acetic acid] | > 500 | > 2000 | > 5000 | > 50 | > 2000 | – | – | – | – | – | > 1500 | – | –
COc1cc2ncn(Cc3ccc4nc(NCC5CCCCC5)sc4c3)c2cc1OC [Example 28, N-(cyclohexylmethyl)-6-((5,6-dimethoxy-1H-benzo[d]imidazol-1-yl)methyl)benzo[d]thiazol-2-amine] | 50 to 200 | ≤ 50 | ≤ 200 | 5 to 20 | ≤ 100 | – | – | – | – | – | 50 to 400 | – | –

The next lines start with results.

IC50 [1, 7] [nM] | Kd [2] [nM] | Kd [4] [nM] | Kd [5] [nM] | Kd [6] [nM] | IC50 ([1]; HEK293 cells, M-CSF stimulated CSF1R phosphorylation, MSD) [nM] | Kd ([2]; competition binding) [nM] | Kd ([4]; competition binding) [nM] | Kd ([5]; competition binding) [nM] | Kd ([6]; competition binding) [nM] | Molecule | IC50 [3, 8] [nM] | IC50 ([3]; Mus musculus, M-NFS-60 cell proliferation) [nM] | IC50 ([3]; 72 hours incubation, M-CSF 20 ng/mL) [nM]
50 to 200 | ≤ 50 | 1000 to 5000 | ≤ 5 | 100 to 500 | – | – | – | – | – | O[C@@H]1Cc2ccccc2[C@H]1Nc1nc2ccc(Cn3cnc4cc(F)cnc43)cc2s1 [Example 69, (1R,2R)-1-((6-((6-fluoro-3H-imidazo[4,5-b]pyridin-3-yl)methyl)benzo[d]thiazol-2-yl)amino)-2,3-dihydro-1H-inden-2-ol] | 50 to 400 | – | –
50 to 200 | 50 to 500 | 1000 to 5000 | ≤ 5 | ≤ 100 | – | – | – | – | – | COc1ccccc1Nc1nc2ccc(Cn3cnc4cc(OC)c(OC)cc43)cc2s1 [Example 30, 6-((5,6-dimethoxy-1H-benzo[d]imidazol-1-yl)methyl)-N-(2-methoxyphenyl)benzo[d]thiazol-2-amine] | 50 to 400 | – | –
≤ 50 | ≤ 50 | ≤ 200 | ≤ 5 | ≤ 100 | – | – | – | – | – | COc1cc2ncn(Cc3ccc4nc(NC5CCCCC5)sc4c3)c2cc1OC [Example 18, N-cyclohexyl-6-((5,6-dimethoxy-1H-benzo[d]imidazol-1-yl)methyl)benzo[d]thiazol-2-amine] | 50 to 400 | – | –
